Data on seven compounds can be found in article PMC9146163, “Novel Au Carbene Complexes as Promising Multi-Target Agents in Breast Cancer Treatment” (Pharmaceuticals, 2022).

In one data set the test system is MDA-MB-231 cells. Kind of data set: MTT assay, MDA-MB-231. As to conditions: read-out: IC50 MDA-MB-231. Type of data set: cell-based, human. The procedure: (§1) The five employed cell lines were purchased from American Type Culture Collection (ATCC, Manassas, VA, USA) and maintained as already reported. MCF-7, MDA-MB-231, MCF-10A and Hek-293 were cultured, as indicated by Iacopetta et al.. SkBr3 cells were maintained in DMEM high glucose, supplemented with 10% FBS and 100 μg/mL penicillin/streptomycin.
(§2) MTT assays [Sigma Aldrich (St.Louis, MO, USA)] were used in order to determine the in vitro anticancer activities of all the target compounds, as already reported.The compounds were tested at different concentrations (0.1-1-10-20-40 µM) for 72 h. Results are represented as percent (%) of basal and the IC50 values were calculated using GraphPad Prism 9 (GraphPad Software, La Jolla, CA, USA).

The subject of a further data set is MCF-7 cells. The data set is described as follows: MTT assay, MCF-7. Type of data set: cell-based, human. The following applies: read-out: IC50 MCF-7. The procedure: as §1, §2
In a further data set the test system is SkBr3 cells. Kind of data set: MTT assay, SkBr3. Type of data set: cell-based, human. The following applies: read-out: IC50 SkBr3. The procedure: as §1, §2
For another data set, the system named is MCF-10A cells. Kind of data set: MTT assay, normal MCF-10A. Type of data set: cell-based, human. The following applies: 72 h, read-out: IC50 MCF-10A. How it is done: (§3) The five employed cell lines were purchased from American Type Culture Collection (ATCC, Manassas, VA, USA) and maintained as already reported. […] SkBr3 cells were maintained in DMEM high glucose, supplemented with 10% FBS and 100 μg/mL penicillin/streptomycin.
[…] Results are represented as percent (%) of basal and the IC50 values were calculated using GraphPad Prism 9 (GraphPad Software, La Jolla, CA, USA).

For data set [1], the system named is Hek-293 cells. Kind of data set: MTT assay, normal Hek-293. Type of data set: cell-based, human. The following applies: read-out: IC50 Hek-293. The procedure: as §3, §2
A short description of data set [2]: LogP determination (1-octanol/water, UV/vis). Type of data set: physicochemical. As to conditions: log[complex]oct/[complex]H2O, 55 μM, UV-Vis. The procedure: The logarithm of the partition coefficient (LogP) was evaluated by making a slight modification to the procedure reported in ref. [79]. Equal volumes of 1-octanol and water (distilled after milli-Q purification) were stirred for 20 h at room temperature. Then, they were separated to give 1-octanol-saturated water and water-saturated 1-octanol. Six (10, 20, 40, 50, 60 and 100 μM) standard concentrations of the compounds were prepared from the water-saturated 1-octanol. Analysis using UV/vis spectroscopy was used to obtain a calibration curve of absorbance vs. concentration. For each complex, a solution was prepared in the water-saturated 1-octanol (55 μM) and an equal volume of 1-octanol-saturated water was added. The solutions (biphasic) were mixed for 15 min and then centrifuged for 1h at 6500 rpm to allow separation.
Concentration in water-saturated 1-octanol was determined by UV-Vis spectroscopy. Reported LogP is defined as log[complex]oct/[complex]H2O.

Another data set has as its system vimentin in MCF-7 cells. The data set is described as follows: Vimentin expression (immunofluorescence), MCF-7. Type of data set: cell-based, human. The following applies: fluorescence quantification; IC50 value, 24 h. How it is done: (§4) The MitoTracker Deep Red FM probe (MitoTracker Mitochondrion-Selective Probes, Invitrogen European Headquarters, Paisley, PA4 9RF, UK) was used for mitochondrial staining, as previously described. For immunofluorescence analysis, the cells were seeded and further processed, as reported by Iacopetta et al.. The primary antibodies used were: rabbit anti-β-Actin and vimentin (Santa Cruz Biotechnology, Dallas, TX, USA), mouse anti cytochrome c and NF-κB p65 (Abcam, Cambridge, UK), diluted 1:100 in bovine serum albumin (BSA) 2% overnight at 4 °C. The secondary antibodies were: Alexa Fluor® 488 conjugate goat-anti-rabbit and Alexa Fluor® 568 conjugate goat-anti-mouse (Thermo Fisher Scientific, MA, USA), diluted 1:500 and incubated for 2h at 37 °C. DAPI 0.2 μg/mL (Sigma Aldrich, Milan, Italy) was used for nuclei staining. […] All the images were acquired and processed using the LAS-X software.
Protein lysates underwent the SDS-PAGE process, as already defined. Then lysates were resolved on a 7.5% SDS polyacrylamide gel, transferred to a nitrocellulose membrane, and probed with antibodies against vimentin and GAPDH (Santa Cruz Biotechnology, Dallas, TX, USA). […] The images are representative of three independent experiments.

Data set [3] has as its target T1, Labeled Rabbit Muscle Actin (Oryctolagus cuniculus, UniProt P68135).
T1 construct: purchased Abcam (Actin Polymerization/Depolymerization Assay Kit)
Kind of data set: In vitro actin polymerization assay. Type of data set: biochemical. The following applies: 5 µM; for actin polymerization curve, final value: end of 1 h kinetic read, control about 37.000 RFU. The procedure:
(§5) The ability of the tested compounds to interfere with the actin polymerization and depolymerization reaction was measured using an Actin Polymerization/Depolymerization Assay Kit purchased from Abcam, following the manufacturer’s instructions. […] For the polymerization assay, reconstituted actin was mixed with supplemented Buffer G and samples in a white 96-well plate and then the polymerization reaction was induced with the addition of the Buffer P supplemented with 10 mM ATP. The solution was mixed and the data acquisition started. For the Actin Depolymerization Assay, supplemented Buffers P and G were mixed and incubated in a white 96-well plate at room temperature for one hour to polymerize the actin, protected from light. Then samples were added and the data acquisition started. Latrunculin A and Cytochalasin B were used as control molecules at a concentration of 5 μM. For both the assays, the assembly of actin filaments was determined by measuring the fluorescence (Ex/Em: 365/410 nm) in kinetic mode for 1 h at room temperature using a microplate reader.

For data set [4], the target named is T1, Labeled Rabbit Muscle Actin. The data set is described as follows: In vitro actin depolymerization assay. Type of data set: biochemical. As to conditions: for effect on already polymerized actin (in words): 5 µM. How it is done:
as §5

For data set [5], the system named is β-actin in MDA-MB-231 cells. The data set is described as follows: Actin immunofluorescence, MDA-MB-231. The following applies: 24 h; compound 1 at its IC50 value, LA 0.1 µM. Type of data set: cell-based, human. How it is done:
as §4

The next data set relates to β-actin in MCF-7 cells. Kind of data set: Actin immunofluorescence, MCF-7. Type of data set: cell-based, human. As to conditions: 24 h; compound 6 at its IC50 value, LA 0.1 µM. The procedure: as §4
The next data set relates to β-actin in MCF-10A cells. The data set is described as follows: Actin immunofluorescence, MCF-10A. The following applies: 24 h; compounds at their IC50 value, LA 0.1 μM. Type of data set: cell-based, human. How it is done:
as §4
E: Figure S1. Actin immunofluorescence studies in MCF-10A cells […]
Figure S1. Actin immunofluorescence studies. M CF-10A cells were treat ed with compounds 1 and […]
treatment, the cells were methanol fixed, incubated with primary and secondary antibodies, stained with DAPI and observed and imaged under the inverted fluorescence microscope at 20x […]
A: nuclear stain with DAPI (λex/λem = 350/460 nm); Panels B: β-actin ([…]); Panels C: show a merge. R epresentative fields are shown.

Data set [6] concerns Hek-293 cells. The data set is described as follows: MTT assay, normal Hek-293. As to conditions: up to the concentration of 200 μM. Type of data set: cell-based, human.
Setting [7] is: MTT, 72 h, normal cells, mean ± SD.

Where two headings read alike, the source gives them in different places. Some results are limits rather than exact numbers.

Turning to `N.N.[Cl][Pt][Cl]` [Cisplatin, reference compound], the half-maximal inhibitory concentration (IC50) with MDA-MB-231 cells (MTT, 72 h, mean ± SD) is 28.7 ± 0.4 µM; with MCF-7 cells (MTT, 72 h, mean ± SD) it was 35.8 ± 0.7 µM; in the data set on SkBr3 cells (MTT, 72 h, mean ± SD), 7.4 ± 0.9 µM; in the data set on MCF-10A cells (MTT, normal cells, mean ± SD) it was 81.3 ± 0.6 µM; in the data set with Hek-293 cells [1] (setting [7]) it was 16.3 ± 0.9 µM.

In data set [2], `COC(Cn1ccn(C)[c]1=[Au+]=[c]1n(C)ccn1CC(OC)c1ccccc1)c1ccccc1.[Cl-]` (centres unmarked) [Compound 3] came in with a lipophilicity (LogP) of 0.62. For the same compound, the IC50 in the data set on MDA-MB-231 cells (MTT, 72 h, mean ± SD) was found to be 2.2 ± 1.1 µM; with MCF-7 cells (MTT, 72 h, mean ± SD), 3.3 ± 1.4 µM; in the data set with SkBr3 cells (MTT, 72 h, mean ± SD), 10.9 ± 0.7 µM; in the data set with MCF-10A cells (MTT, normal cells, mean ± SD) it was 13.3 ± 1 µM; with Hek-293 cells [1] (setting [7]), 39 ± 0.9 µM.

Take `CC(=O)[O-].Cn1ccn(CC([O-])c2ccccc2)[c]1=[Au+]=[c]1n(C)ccn1CC([O-])c1ccccc1.[Na+].[Na+]` (centres unmarked) [Compound 2]: the log partition coefficient (LogP) in data set [2] worked out at 0.047. Further, the half-inhibitory concentration (IC50) was 22.6 ± 1.1 µM in the data set with MDA-MB-231 cells (MTT, 72 h, mean ± SD); 30.6 ± 0.7 µM in the data set with MCF-7 cells (MTT, 72 h, mean ± SD); 38.4 ± 0.4 µM in the data set on SkBr3 cells (MTT, 72 h, mean ± SD); 39.6 ± 0.5 µM with MCF-10A cells (MTT, normal cells, mean ± SD); more than 200 µM with Hek-293 cells [1] (setting [7]). The “reduction of vimentin expression with respect to the control, MCF-7” value in the data set on vimentin in MCF-7 cells is “two times lower”.

On to `C=C1[C@@H](C)[C@H]2[C@H](Cc3ccccc3)NC(=O)[C@]23OC(=O)/C=C/[C@H](O)CCC[C@@H](C)C/C=C/[C@H]3[C@@H]1O` [cytochalasin B], for which, in data set [3], the “effect on actin polymerization (in words)” value is reported as “impeded the actin polymerization” and the “actin polymerization curve, final value” is given as “ended almost at the same RFU value of the beginning”. For the same compound, the “effect on already polymerized actin (in words)” value in data set [4] is “did not produce a significant decrease”.

Take `C/C1=C/C(=O)O[C@@H]2C[C@@H](CC[C@H](C)/C=C\C=C\CC1)O[C@@](O)([C@@H]1CSC(=O)N1)C2` [Latrunculin A, reference compound]: the 50% inhibitory concentration (IC50) in the data set with MDA-MB-231 cells (Homo sapiens, MDA-MB-231, 72 h) was 0.024 µM; in the data set on MCF-7 cells (Homo sapiens, MCF7, 72 h), 0.14 µM; in the data set on SkBr3 cells (Homo sapiens, SK-BR-3, 72 h), 0.7 ± 1.2 µM; with MCF-10A cells (Homo sapiens, MCF-10A), 0.045 µM; with Hek-293 cells [1] (Homo sapiens, HEK293, 72 h), 0.093 µM. Also, the “actin polymerization curve, value 14 min after the reaction started” value in data set [3] is given as “about 12.000 RFU”. In addition, in data set [3], the “effect on actin polymerization (in words)” value is “impeded the actin polymerization”. Moreover, the “actin polymerization curve, final value” in data set [3] is “about 10.000 RFU”. The “effect on already polymerized actin (in words)” value in data set [4] is recorded as “triggered the actin depolymerization”. Besides, the “actin depolymerization curve, end value” in [4] (5 µM added to actin polymerized for one hour, followed for another hour) stood at 14.000 RFU. The “actin depolymerization curve, value after the net decrease at about seven minutes” value in data set [4] (5 µM added to actin polymerized for one hour, initial value around 28.000 RFU) is reported as “about 16.800 RFU”. Besides, the “actin organization in MDA-MB-231 cells” value in data set [5] is “complete disorganization of the actin system”. In the data set with β-actin in MCF-7 cells, the “actin organization in MCF-7 cells” value was “complete disorganization of the actin system”. Also, in the data set with β-actin in MCF-10A cells, the “actin organization in MCF-10A cells” value is recorded as “aberrant actin arrangement”. Further, in the data set on Hek-293 cells [6], the “cytotoxicity against the normal Hek-293 cells (in words)” value is “drastically reduced”.

As for `CC(=O)[O-].COC(Cn1ccn(C)[c]1=[Au+]=[c]1n(C)ccn1CC(OC)c1ccccc1)c1ccccc1` (centres unmarked) [Compound 4, Bis [(N-methyl, N’(2-methoxy-2-phenyl-ethyl)imidazole-2-ylidine]gold(I)] acetate], the IC50 worked out at 3 ± 0.7 µM in the data set on MDA-MB-231 cells (MTT, 72 h, mean ± SD); 9.4 ± 0.6 µM in the data set on MCF-7 cells (MTT, 72 h, mean ± SD); 2.6 ± 0.7 µM with SkBr3 cells (MTT, 72 h, mean ± SD); 5.2 ± 0.9 µM in the data set on MCF-10A cells (MTT, normal cells, mean ± SD); 7.6 ± 1 µM with Hek-293 cells [1] (setting [7]).

As to `CC(=O)[O-].Cn1ccn(CC(O)c2ccccc2)[c]1=[Au+]=[c]1n(C)ccn1CC(O)c1ccccc1` (centres unmarked) [Compound 5], in data set [2], the log partition coefficient (LogP) turned out to be 0.12. The IC50 in the data set with MDA-MB-231 cells (MTT, 72 h, mean ± SD) is 58.5 ± 1.2 µM; in the data set on MCF-7 cells (MTT, 72 h, mean ± SD), 21.9 ± 0.5 µM; with SkBr3 cells (MTT, 72 h, mean ± SD) it was 58.9 ± 1.2 µM; in the data set with MCF-10A cells (MTT, normal cells, mean ± SD) it was 27.8 ± 0.7 µM; in the data set on Hek-293 cells [1] (setting [7]), more than 200 µM.
